Target: T1, BaCYP106A6 (Bacillus sp. (in: firmicutes), UniProt Z9J180VW61)
T1 construct: His-tagged, pET28a(+), E. coli C41(DE3); Co2+ resin; monomer; N-terminus MLKEVI and C-terminus NVYK deduced from printed primers; heme-ligating Cys356; unique Arg295
T1 sequence (Z9J180VW61 1-410): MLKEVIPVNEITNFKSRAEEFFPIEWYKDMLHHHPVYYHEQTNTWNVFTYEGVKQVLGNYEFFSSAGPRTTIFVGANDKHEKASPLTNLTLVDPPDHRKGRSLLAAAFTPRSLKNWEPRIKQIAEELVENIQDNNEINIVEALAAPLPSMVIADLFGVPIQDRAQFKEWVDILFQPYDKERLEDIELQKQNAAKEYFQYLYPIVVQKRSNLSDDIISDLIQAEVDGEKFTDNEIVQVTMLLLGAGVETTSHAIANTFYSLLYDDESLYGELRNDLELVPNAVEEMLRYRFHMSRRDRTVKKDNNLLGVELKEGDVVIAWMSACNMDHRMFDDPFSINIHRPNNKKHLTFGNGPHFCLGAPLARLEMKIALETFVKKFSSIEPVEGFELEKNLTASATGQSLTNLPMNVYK
Experiment: UV-visible type I difference spectral titration
Format: binding

Row | Structure (SMILES) | Kd [µM]
1 | CC(=O)[C@H]1CC[C@H]2[C@@H]3CCC4=CC(=O)CC[C@]4(C)[C@H]3CC[C@]12C [progesterone] | 38.4
2 | C[C@]12CCC(=O)C=C1CC[C@@H]1[C@@H]2CC[C@]2(C)C(=O)CC[C@@H]12 [androstenedione] | 36.6

— PMC10084758, “Crystal Structure and Biochemical Analysis of a Cytochrome P450 Steroid Hydroxylase (BaCYP106A6) from Bacillus Species” (Journal of Microbiology and Biotechnology, 2022)
